Assay results taken from patent US9605026B2, “Hydrogen-bond surrogate peptides and peptidomimetics for p53 reactivation” (New York University, priority 2013, dated 2017).

What was measured:
UMSCC74A cells = test: Cell proliferation (MTT) in UMSCC74A cells; format: cell-based, human; details: for cell proliferation, single-agent: UMSCC74A (HPV-negative), 10 μM; for effect on efficacy of cis-platinum on proliferation: UMSCC74A, 10 μM with cis-platinum 10 μM
Description: (§1) FIG. 5A is an schematic illustration showing that CH1 has two distinct target sites. HIF1-α/p300 structures were used as guides to design helix mimetics that target site A and site B on the CH1 domain of p300. […] CH1iA (SEQ ID NO: 7) and CH1iB (SEQ ID NO: 8) were designed to mimic two helices from the C-terminal domain of HIF-1α. The peptides were locked into the helical conformation by the hydrogen bond surrogate method. FIG. 5C is a graph of p53 activity. UMSCC47 (left) and UMSCC74A (right) cells were co-transfected with a p53 Firefly luciferase reporter plasmid and a control Renilla luciferase plasmid. After 24 hours, cells were treated with control (vehicle), CH1iA (10 μM), or CH1iB (10 μM) for 24 hours. Firefly luciferase activity was normalized to Renilla luciferase activity to control for transfection efficiency. Data is normalized to control and presented as mean±SEM. *P<0.05, n=3. FIG. 5D is a western blot showing total and acetylated p53 levels. UMSCC47 (left) and UMSCC74A (right) cells were treated with control (vehicle), CH1iA (10 μM), or CH1iB (10 μM) for 24 hours. Cell lysates were immunoblotted with anti-p53 or anti-acetylated[K382]-p53 antibody. FIG. 5E is a pair of graphs of p300, p53, p21, miR-34a, and miR-200c expression. UMSCC47 (top panel) and UMSCC74A (bottom panel) cells were treated with control (vehicle), CH1iA (10 μM), or CH1iB (10 μM) for 24 hours. mRNA expression was determined using qPCR with validated TaqMan assays. Data is normalized to control cells and presented as mean±SEM. *P<0.01, control vs. CH1iB, n=3. FIG. 5F is a western blot showing HPV16 E6-p300 association. UMSCC47 cells were treated with control (vehicle), CH1iA (10 μM), or CH1iB (10 μM) for 24 hours. Cell lysates were extracted, immunoprecipitated with anti-p300 antibody, and immunoblotted with anti-E6 antibody. Cell lysates were immunoblotted with anti-E6 or anti-p300 antibody for input control. FIG. 5G is a set of graphs of cell proliferation. UMSCC47 (top left panel), UMSCC74A (top right panel), and IMR90 (human normal fibroblasts) (bottom panel) cells were treated with control (vehicle), CH1iA (10 μM), CH1iB (10 μM), cis-platinum (10 μM), CH1iA (10 μM) and cis-platinum (10 μM), or CH1iB (10 μM) and cis-platinum (10 μM) for 24, 48, or 72 hours. […]
(§2) Cell proliferation was assessed using the MTT reagent (Roche Molecular Biochemicals, Nutley, N.J.) to detect metabolic active cells. Absorbance was measured at 570 nm in the Spectra Max 190 ELISA reader (Molecular Devices, Sunnyvale, Calif.) after overnight incubation. […] Apoptotic cells were analyzed using BD FACS Calibur (BD Biosciences Corporation, Franklin Lakes, N.J.) at The Ohio State University Comprehensive Cancer Center Analytical Cytometry Core.

[1] = tested on: human normal IMR90 fibroblasts; test: Cell proliferation (MTT) in IMR90 fibroblasts; format: cell-based; details: for effect on efficacy of cis-platinum on proliferation: IMR90, 10 μM with cis-platinum 10 μM; for cell proliferation, single-agent: IMR90 human normal fibroblasts, 10 μM
Description: as §1, §2

p53 [2] = test: Western blot of total and acetylated[K382] p53 in UMSCC74A cells; format: cell-based, human; details: UMSCC74A (HPV-negative, p53 wildtype), 10 μM, 24 hours
Description: FIG. 5A is an schematic illustration showing that CH1 has two distinct target sites. HIF1-α/p300 structures were used as guides to design helix mimetics that target site A and site B on the CH1 domain of p300. […] CH1iA (SEQ ID NO: 7) and CH1iB (SEQ ID NO: 8) were designed to mimic two helices from the C-terminal domain of HIF-1α. The peptides were locked into the helical conformation by the hydrogen bond surrogate method. FIG. 5C is a graph of p53 activity. UMSCC47 (left) and UMSCC74A (right) cells were co-transfected with a p53 Firefly luciferase reporter plasmid and a control Renilla luciferase plasmid. After 24 hours, cells were treated with control (vehicle), CH1iA (10 μM), or CH1iB (10 μM) for 24 hours. Firefly luciferase activity was normalized to Renilla luciferase activity to control for transfection efficiency. Data is normalized to control and presented as mean±SEM. *P<0.05, n=3. FIG. 5D is a western blot showing total and acetylated p53 levels. UMSCC47 (left) and UMSCC74A (right) cells were treated with control (vehicle), CH1iA (10 μM), or CH1iB (10 μM) for 24 hours. Cell lysates were immunoblotted with anti-p53 or anti-acetylated[K382]-p53 antibody. […] UMSCC47 (top panel) and UMSCC74A (bottom panel) cells were treated with control (vehicle), CH1iA (10 μM), or CH1iB (10 μM) for 24 hours. mRNA expression was determined using qPCR with validated TaqMan assays. […]

p53 [3] = test: p53 transcriptional activity (Cignal p53 luciferase reporter) in UMSCC47 cells; format: cell-based, human; details: 24 hours
Description: FIG. 5A is an schematic illustration showing that CH1 has two distinct target sites. HIF1-α/p300 structures were used as guides to design helix mimetics that target site A and site B on the CH1 domain of p300. […] CH1iA (SEQ ID NO: 7) and CH1iB (SEQ ID NO: 8) were designed to mimic two helices from the C-terminal domain of HIF-1α. The peptides were locked into the helical conformation by the hydrogen bond surrogate method. FIG. 5C is a graph of p53 activity. UMSCC47 (left) and UMSCC74A (right) cells were co-transfected with a p53 Firefly luciferase reporter plasmid and a control Renilla luciferase plasmid. After 24 hours, cells were treated with control (vehicle), CH1iA (10 μM), or CH1iB (10 μM) for 24 hours. Firefly luciferase activity was normalized to Renilla luciferase activity to control for transfection efficiency. Data is normalized to control and presented as mean±SEM. *P<0.05, n=3. FIG. 5D is a western blot showing total and acetylated p53 levels. UMSCC47 (left) and UMSCC74A (right) cells were treated with control (vehicle), CH1iA (10 μM), or CH1iB (10 μM) for 24 hours. Cell lysates were immunoblotted with anti-p53 or anti-acetylated[K382]-p53 antibody. FIG. 5E is a pair of graphs of p300, p53, p21, miR-34a, and miR-200c expression. UMSCC47 (top panel) and UMSCC74A (bottom panel) cells were treated with control (vehicle), CH1iA (10 μM), or CH1iB (10 μM) for 24 hours. mRNA expression was determined using qPCR with validated TaqMan assays. Data is normalized to control cells and presented as mean±SEM. *P<0.01, control vs. CH1iB, n=3. FIG. 5F is a western blot showing HPV16 E6-p300 association. UMSCC47 cells were treated with control (vehicle), CH1iA (10 μM), or CH1iB (10 μM) for 24 hours. Cell lysates were extracted, immunoprecipitated with anti-p300 antibody, and immunoblotted with anti-E6 antibody. Cell lysates were immunoblotted with anti-E6 or anti-p300 antibody for input control. FIG. 5G is a set of graphs of cell proliferation. UMSCC47 (top left panel), UMSCC74A (top right panel), and IMR90 (human normal fibroblasts) (bottom panel) cells were treated with control (vehicle), CH1iA (10 μM), CH1iB (10 μM), cis-platinum (10 μM), CH1iA (10 μM) and cis-platinum (10 μM), or CH1iB (10 μM) and cis-platinum (10 μM) for 24, 48, or 72 hours. Data is normalized to Day 0 and presented as mean±SEM. *P<0.01, control vs. CH1iB or cis-platinum, **P<0.01 CH1iB or cis-platinum vs. CH1iB and cis-platinum, n=6.
FIG. 6A is a western blot showing total and acetylated p53 levels. […] UMSCC47 cells were treated with control (vehicle), CH1iB (10 μM), cis-platinum (10 μM), or CH1iB (10 μM) and cis-platinum (10 μM) for 24 hours. mRNA expression was determined using qPCR with validated TaqMan assays. […]

[4] = target: T1, HPV16 E6-p300 association (Homo sapiens, UniProt Q09472); test: Immunoprecipitation of HPV16 E6-p300 association in UMSCC47 cells; format: cell-based; details: UMSCC47, 10 μM, 24 hours
T1 construct: UMSCC47 cells were treated with control (vehicle), CH1iA (10 μM), or CH1iB (10 μM) for 24 hours; endogenous in cells; host or cells: UMSCC47 (HPV16-positive HNSCC cells)
T1 sequence (Q09472 whole entry): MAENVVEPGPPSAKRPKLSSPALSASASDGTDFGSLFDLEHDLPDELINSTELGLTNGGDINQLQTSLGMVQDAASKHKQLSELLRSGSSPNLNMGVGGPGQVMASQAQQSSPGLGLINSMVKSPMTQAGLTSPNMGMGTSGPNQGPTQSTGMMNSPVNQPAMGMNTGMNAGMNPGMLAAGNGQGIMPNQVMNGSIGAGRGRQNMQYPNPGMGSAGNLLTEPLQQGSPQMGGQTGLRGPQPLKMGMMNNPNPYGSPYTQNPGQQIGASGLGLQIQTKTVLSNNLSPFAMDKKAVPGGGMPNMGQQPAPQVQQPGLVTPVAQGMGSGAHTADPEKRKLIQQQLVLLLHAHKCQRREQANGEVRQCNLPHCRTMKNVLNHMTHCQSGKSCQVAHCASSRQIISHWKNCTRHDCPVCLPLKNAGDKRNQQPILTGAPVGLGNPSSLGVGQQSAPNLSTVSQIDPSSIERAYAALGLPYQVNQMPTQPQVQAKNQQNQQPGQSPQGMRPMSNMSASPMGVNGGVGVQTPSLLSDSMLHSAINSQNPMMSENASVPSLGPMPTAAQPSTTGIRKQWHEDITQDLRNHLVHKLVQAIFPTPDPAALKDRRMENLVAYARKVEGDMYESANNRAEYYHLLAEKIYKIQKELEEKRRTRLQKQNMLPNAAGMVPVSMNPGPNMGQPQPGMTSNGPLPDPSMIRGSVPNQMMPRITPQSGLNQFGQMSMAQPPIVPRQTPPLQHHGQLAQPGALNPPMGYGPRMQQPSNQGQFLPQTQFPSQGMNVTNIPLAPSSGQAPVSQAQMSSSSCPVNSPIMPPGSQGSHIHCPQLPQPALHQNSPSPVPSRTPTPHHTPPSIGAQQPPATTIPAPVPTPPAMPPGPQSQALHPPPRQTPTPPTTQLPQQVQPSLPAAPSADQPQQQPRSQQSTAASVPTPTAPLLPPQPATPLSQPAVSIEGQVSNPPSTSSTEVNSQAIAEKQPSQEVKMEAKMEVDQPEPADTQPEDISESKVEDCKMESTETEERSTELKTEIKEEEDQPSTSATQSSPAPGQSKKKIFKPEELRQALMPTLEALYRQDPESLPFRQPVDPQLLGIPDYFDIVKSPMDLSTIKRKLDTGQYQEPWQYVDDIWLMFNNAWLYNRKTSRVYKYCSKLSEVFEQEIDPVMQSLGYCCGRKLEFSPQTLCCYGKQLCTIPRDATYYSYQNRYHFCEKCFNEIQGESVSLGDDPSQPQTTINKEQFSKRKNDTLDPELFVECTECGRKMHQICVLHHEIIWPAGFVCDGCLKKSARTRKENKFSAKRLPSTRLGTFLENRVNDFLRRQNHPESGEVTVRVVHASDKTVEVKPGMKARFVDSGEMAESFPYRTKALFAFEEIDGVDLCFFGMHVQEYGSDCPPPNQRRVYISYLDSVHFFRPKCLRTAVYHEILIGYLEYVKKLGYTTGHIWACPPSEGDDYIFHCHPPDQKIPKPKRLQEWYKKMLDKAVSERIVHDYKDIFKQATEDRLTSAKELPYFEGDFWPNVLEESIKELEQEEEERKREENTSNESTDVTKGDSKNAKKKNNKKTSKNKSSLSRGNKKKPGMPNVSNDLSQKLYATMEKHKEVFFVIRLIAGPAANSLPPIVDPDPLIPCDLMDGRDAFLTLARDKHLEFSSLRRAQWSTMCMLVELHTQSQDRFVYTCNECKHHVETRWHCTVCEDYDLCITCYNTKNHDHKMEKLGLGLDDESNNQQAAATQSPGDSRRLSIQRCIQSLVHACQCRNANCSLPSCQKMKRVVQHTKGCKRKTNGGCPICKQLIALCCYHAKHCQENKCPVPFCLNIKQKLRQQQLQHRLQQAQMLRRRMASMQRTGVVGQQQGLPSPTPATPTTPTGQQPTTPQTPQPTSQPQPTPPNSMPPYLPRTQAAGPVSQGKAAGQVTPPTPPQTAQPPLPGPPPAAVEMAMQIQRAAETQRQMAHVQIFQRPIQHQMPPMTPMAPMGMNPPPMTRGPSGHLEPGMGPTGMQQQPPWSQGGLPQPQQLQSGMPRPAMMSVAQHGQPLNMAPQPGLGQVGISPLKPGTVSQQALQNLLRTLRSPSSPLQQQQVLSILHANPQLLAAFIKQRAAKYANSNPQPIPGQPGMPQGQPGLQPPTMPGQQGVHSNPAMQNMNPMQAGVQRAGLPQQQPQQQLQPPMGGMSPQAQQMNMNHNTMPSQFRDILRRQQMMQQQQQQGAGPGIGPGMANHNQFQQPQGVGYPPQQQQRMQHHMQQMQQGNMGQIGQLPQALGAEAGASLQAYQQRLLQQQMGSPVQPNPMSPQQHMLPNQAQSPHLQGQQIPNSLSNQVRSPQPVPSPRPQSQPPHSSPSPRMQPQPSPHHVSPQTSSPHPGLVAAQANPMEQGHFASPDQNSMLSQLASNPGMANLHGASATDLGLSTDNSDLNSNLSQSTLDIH
Description: FIG. 5C is a graph of p53 activity. UMSCC47 (left) and UMSCC74A (right) cells were co-transfected with a p53 Firefly luciferase reporter plasmid and a control Renilla luciferase plasmid. After 24 hours, cells were treated with control (vehicle), CH1iA (10 μM), or CH1iB (10 μM) for 24 hours. Firefly luciferase activity was normalized to Renilla luciferase activity to control for transfection efficiency. Data is normalized to control and presented as mean±SEM. *P<0.05, n=3. FIG. 5D is a western blot showing total and acetylated p53 levels. UMSCC47 (left) and UMSCC74A (right) cells were treated with control (vehicle), CH1iA (10 μM), or CH1iB (10 μM) for 24 hours. Cell lysates were immunoblotted with anti-p53 or anti-acetylated[K382]-p53 antibody. FIG. 5E is a pair of graphs of p300, p53, p21, miR-34a, and miR-200c expression. UMSCC47 (top panel) and UMSCC74A (bottom panel) cells were treated with control (vehicle), CH1iA (10 μM), or CH1iB (10 μM) for 24 hours. mRNA expression was determined using qPCR with validated TaqMan assays. Data is normalized to control cells and presented as mean±SEM. *P<0.01, control vs. CH1iB, n=3. […] UMSCC47 cells were treated with control (vehicle), CH1iA (10 μM), or CH1iB (10 μM) for 24 hours. Cell lysates were extracted, immunoprecipitated with anti-p300 antibody, and immunoblotted with anti-E6 antibody. […]

Substance | cell proliferation, single-agent (UMSCC74A cells) | effect on efficacy of cis-platinum on proliferation (UMSCC74A cells) | effect on efficacy of cis-platinum on proliferation [1] | cell proliferation, single-agent [1] | p53 levels (p53 [2]) | p53 activity increase (p53 [3]; UMSCC47 (HPV-positive), 10 μM, vs control (vehicle)) | effect of cis-platinum on p53 activity (p53 [3]; UMSCC47, CH1iB 10 μM with cis-platinum 10 μM) | association between E6 and p300 [4] | p53 activity, effect in words (p53 [3]; UMSCC47 (HPV-positive), 10 μM)
XELA*RALDQ-NH2 (ELXRALDQ; HBS: 4-pentenoic acid, N-allylalanine; C-terminal amide; CH1iB) [X 4-pentenoic acid, A* N-allylalanine] | no effect | did not augment | did not augment | no effect | did not modulate | 71% | potentiated | reduced | –
XTAA*DCEYNAR (TAXDCEYNAR; HBS: 4-pentenoic acid, N-allylalanine; CH1iA) [X 4-pentenoic acid, A* N-allylalanine, reference compound] | no effect | did not augment | did not augment | no effect | did not modulate | – | – | – | no effect
